# pKi: −log10 of the molar value. “And” between values parts separate entries of the source, which are not always exact repeats. Equal entries are not always repeated. Where two headings read alike, the source gives them in different places.
# Columns and labels:
# [1] = biological target: T1, Urokinase (sc-urokinase) (Homo sapiens, UniProt P00749); experiment: In vitro inhibition of urokinase (chromogenic substrate, Dixon Ki); format: biochemical
# T1 construct: purchased Ribosepharm GmbH, Haan, Germany
# Protocol: (§1) To determine the inhibitory activity, 200 μl of Tris buffer (0.05 mol/l, containing the inhibitor, 0.154 mol/l NaCl, 5% ethanol pH 8.0), 25 μl of substrate (Pefachrome UK or Bz-βAla-Gly-Arg-pNA in H2O; Pentapharm Ltd., Basle, Switzerland) and 50 μl of sc-urokinase (Ribosepharm GmbH, Haan, Germany) were incubated at 25° C. After 3 min the reaction was stopped by adding 25 μl of acetic acid (50%), and the absorption at 405 nm was determined by means of a Microplate Reader (MR 5000, Dynatech, Denkendorf, Germany). Ki values were determined according to Dixon by linear regression using a computer program. The Ki values are the mean values of at least three determinations with a standard deviation of less than 25%.
# [2] = Biodistribution of the inhibitor in rats (HPLC of tissue extracts); format: in vivo, rat; details: for concentration in tracheal lymph nodes: two independent experiments, hydrochloride
# Protocol: The biodistribution of the inhibitor was determined by two independent experiments in tissue extracts of rats which had been treated once a day with 1 mg/kg i.p. of inhibitor i.p. over a period of 5 or 10 days. For the lysis, in each case 100 mg of tissue were mechanically comminuted and mixed with 200 μl of 1% Triton X-100 in physiological NaCl solution. After adding 400 μl of ethanol, the mixture was sonicated for 1 min. The tissue extract was centrifuged at 12,000×g for 15 min. For prepurification, the supernatant was applied to a C18 Silica Reversed Phase column (Sep-Pak® cartridge C18, 1 ml Water, Eschborn, Germany), equilibrated with 1 ml of methanol and 1 ml of water, washed successively with 2×1 ml H2O, 1 ml 10% methanol, 1 ml H2O, 1 ml 5% acetonitrile, 0.04% perchloric acid and 1 ml H2O and eluted with 500 μl of 75% acetonitrile, 0.04% perchloric acid. HPLC analysis was carried out on a reversed phase C18 silica column with a 5-55% strength acetonitrile gradient containing 0.04% perchloric acid.
# [3] = system: rat breast tumor BN472; experiment: BN472 rat breast tumor model, metastatic lung foci (Example 10); format: in vivo
# Source text: In detail, the syngeneic transplantable spontaneously metastasizing rat breast tumor BN472 was used as a model. BN-472 transplantable rat mammary carcinoma used in this study was originally found spontaneously developed in a retired breeder female Brown Norway rat (Kort et al. J. Nat. Cancer Inst. 1984, 72: 7709-7713). The data presented here focus on the reduction in the number of metastatic lung foci as endpoint.
# FIG. 7 depicts the anti-metastatic efficacy of WX-UK1 in a setting implying surgical resection of the orthotopically growing tumor at a defined size and various time points of therapy onset relative to resection. After orthotopic implantation of BN472 fragment under the mammary fat pad the primary tumors were allowed to grow to a fixed palpable size (4×4 mm). The treatments groups (n=18) were allocated in a way to ensure homogeneous group composition with respect to tumor residence periods (range 3-14 d) prior group allocation. Primary tumors were surgically removed 4 days after having reached the fixed size. Onsets of treatments with 0.3 mg/kg s.c. daily were group specifically either on the day of reaching the fixed size (PO)mor four (P4), eight (P8), or twelve (P112) days thereafter. […] Starting on day 3 after tumor inoculation treatment groups (n=15) received WX-UK1 at weekly doses of […] either by daily application of 0.3 mg/kg (0.3 mg/kg o.d.), by application of 1 mg/kg twice per week (1 mg/kg t.w.) or by dosing 2 mg/kg once per week (2 mg/kg o.w.). The anti-metastatic efficacy previously established with daily treatments was retained when WX-UK1 was administered only twice or once per week at the same weekly dose.
# Treatment was initiated on day 3 after tumor inoculation. b) Groups of rats (n=8) were treated with 5-FU at 20 or 40 mg/kg i.v. once weekly either as mono-therapy or in combination with WX-UK1 i.p. treatments at 1 mg/kg twice weekly or with WX-UK1 alone. Indeed, WX-UK1 was efficacious at reducing lung foci numbers when combined with these standard therapeutics.
# [4] = biological target: Tryptase (Homo sapiens, UniProt Q15661); experiment: In vitro inhibition of serine proteases: tryptase; format: biochemical
# Tryptase, sequence (Q15661 31-275): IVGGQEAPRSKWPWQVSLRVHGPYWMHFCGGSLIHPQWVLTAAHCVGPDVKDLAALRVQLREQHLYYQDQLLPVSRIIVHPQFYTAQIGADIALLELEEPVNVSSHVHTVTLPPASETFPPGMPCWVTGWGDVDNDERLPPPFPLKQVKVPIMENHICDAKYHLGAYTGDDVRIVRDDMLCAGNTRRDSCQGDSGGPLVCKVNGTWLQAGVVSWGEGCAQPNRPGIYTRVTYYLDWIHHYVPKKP
# Protocol: as §1
# The inhibition activities of the enzymes used were determined according to the principle described in Example 3.
# [5] = biological target: T2, Trypsin (Bos taurus, UniProt P00760); experiment: In vitro inhibition of serine proteases: trypsin; format: biochemical
# T2 construct: gene PRSS1
# T2 sequence (P00760 24-246): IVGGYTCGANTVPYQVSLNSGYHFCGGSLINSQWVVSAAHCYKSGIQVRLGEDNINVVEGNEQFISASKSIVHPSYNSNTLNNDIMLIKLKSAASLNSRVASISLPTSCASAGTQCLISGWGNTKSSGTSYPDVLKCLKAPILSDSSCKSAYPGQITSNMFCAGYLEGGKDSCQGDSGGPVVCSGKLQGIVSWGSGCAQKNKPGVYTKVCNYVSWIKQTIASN
# Protocol: (§2) Ki values were determined according to Dixon by linear regression using a computer program.
# [6] = biological target: Thrombin (Homo sapiens, UniProt P00734); experiment: In vitro inhibition of serine proteases: thrombin; format: biochemical
# Protocol: as §2
# [7] = concluded from plasma vs tissue concentrations
structure (smiles),measurement,setting,value
"CCOC(=O)N1CCN(C(=O)[C@H](Cc2cccc(C(=N)N)c2)NS(=O)(=O)c2c(C(C)C)cc(C(C)C)cc2C(C)C)CC1.Cl [uPA inhibitor, Nα-2,4,6-Triisopropylphenylsulfonyl-(L)-3-amidinophenylalanine 4-ethoxycarbonylpiperazide hydrochloride]",pKi,"[1]; in vitro inhibition of urokinase, 25° C, pH 8.0, 5% ethanol, read-out: Ki",6.39
same,pKi,[1]; read-out: Ki Urokinase,6.39
same,Content Bile,[2]; 1 mg/kg i.p. 5 days,1.96 µg/mL
same,Content Brain,[2]; 1 mg/kg i.p. 5 days,<0.5 µg/g
same,Content Fat/kidney,[2]; 1 mg/kg i.p. 5 days,0.82 µg/g
same,Content Heart,[2]; 1 mg/kg i.p. 5 days,<0.5 µg/g
same,Content Kidney,[2]; 1 mg/kg i.p. 5 days,2.67 µg/g
same,Content Liver,[2]; 1 mg/kg i.p. 5 days,2.85 µg/g
same,Content Lung,[2]; 1 mg/kg i.p. 5 days,3.70 µg/g
same,Content Lymph nodes/trachea,[2]; 1 mg/kg i.p. 5 days,7.45 µg/g
same,Content Muscle,[2]; 1 mg/kg i.p. 5 days,0.74 µg/g
same,Content Plasma,[2]; 1 mg/kg i.p. 5 days,0.008 µg/mL
same,Content Spleen,[2]; 1 mg/kg i.p. 5 days,2.02 µg/g
same,Content lymph nodes/axillary,[2]; 1 mg/kg i.p. 5 days,1.97 µg/g
same,Content lymph nodes/knee,[2]; 1 mg/kg i.p. 5 days,7.83 µg/g
same,Content Bile,[2]; 1 mg/kg i.p. 10 days,1.75 µg/mL
same,Content Brain,[2]; 1 mg/kg i.p. 10 days,<0.5 µg/g
same,Content Fat/kidney,[2]; 1 mg/kg i.p. 10 days,1.0 µg/g
same,Content Heart,[2]; 1 mg/kg i.p. 10 days,1.09 µg/g
same,Content Kidney,[2]; 1 mg/kg i.p. 10 days,2.48 µg/g
same,Content Liver,[2]; 1 mg/kg i.p. 10 days,2.08 µg/g
same,Content Lung,[2]; 1 mg/kg i.p. 10 days,1.81 µg/g
same,Content Lymph nodes/trachea,[2]; 1 mg/kg i.p. 10 days,16.38 µg/g
same,Content Muscle,[2]; 1 mg/kg i.p. 10 days,<0.5 µg/g
same,Content Plasma,[2]; 1 mg/kg i.p. 10 days,0.035 µg/mL
same,Content Spleen,[2]; 1 mg/kg i.p. 10 days,2.48 µg/g
same,Content lymph nodes/axillary,[2]; 1 mg/kg i.p. 10 days,2.74 µg/g
same,Content lymph nodes/knee,[2]; 1 mg/kg i.p. 10 days,3.8 µg/g
same,plasma concentrations relative to the mean tissue concentrations,[2]; 24 h after the last i.p. administration,one to two orders of magnitude below
same,concentration in tracheal lymph nodes,[2]; after 5 days of administration,5.3 µg/g and 7.5 µg/g
same,concentration in tracheal lymph nodes,[2]; after 10 days of administration,21.6 µg/g and 16.4 µg/g
same,plasma protein binding,[2]; [7],low plasma protein binding
same,tissue affinity,[2]; [7],high tissue affinity
same,accumulation in lymph nodes,"[2]; rat, in vivo",noticeable accumulation
same,anti-metastatic activity with surgical resection of the primary tumor,"[3]; 0.3 mg/kg s.c. daily, various onsets relative to resection (FIG. 7)",Anti-metastatic activity was obvious
same,anti-metastatic efficacy at prolonged dosing intervals,[3]; 1 mg/kg twice per week or 2 mg/kg once per week vs 0.3 mg/kg daily (FIG. 8),retained
same,reducing lung foci numbers in combination,[3]; combined with epirubicin or 5-FU (FIG. 9),efficacious
same,pKi,[4],5.20
same,pKi,[5],7.43
same,pKi,[6],6.31

# Reference: patent US7342018B2, “Urokinase inhibitors and uses thereof” (Wilex AG, priority 1998, dated 2008)
